In US20240115676A1, “SILICIFIED TUMOR CELL COMPOSITIONS AND METHODS” (UNM Rainforest Innovations, priority 2020, published 2024):

Assays:
[1] = system: BR5-Akt-Luc2 tumors; test: Cisplatin and vaccine combination therapy in late stage ovarian cancer model; format: in vivo, FVB mice; details: cisplatin 2 mg/kg intraperitoneally Day 9, vaccine Day 10 after tumor challenge
Protocol: Tumor-bearing or naïve female FVB mice were vaccinated intraperitoneally with irradiated (100 Gy at […], 15 mA, 48 Gy/min; or a Cs-137 gamma irradiator with a dose rate of 63 cGy/min) or silicified BR5-Akt (or BR5-Akt-Luc2 for vaccine viability analysis) cells (with TLR ligands as indicated) using doses of 3×10^4, 3×10^5, 3×10^6, or 3×10^7 Si-cells/mouse in 200 μl of PBS at the indicated schedules. Alternatively, mice were vaccinated subcutaneously (SC) with 3×10^6 Si-cells by scruffing the skin at the back of their neck and injecting an equivalent volume into the loose fold of skin. Mice that cleared all tumor cells based on IVIS Spectrum bioluminescent imaging were re-challenged with 2×10^5 BR5-Akt-Luc2 cancer cells at a later date, as indicated for each study. All control (no Tx) mice received sham PBS injections (200 μl/mouse). Single agent or combination therapy with cisplatin used IP administration of cis-diamineplatinum (II) dichloride (Sigma-Aldrich, St. Louis, MO) on Day 9 at 2 mg/kg in physiological saline.
For in vivo monitoring of tumor burden, mice with BR5-Akt-Luc2 tumors were administered 150 mg luciferin/kg by intraperitoneal injection, with a 10-minute delay before imaging. Mice were then anesthetized using 2.5% isoflurane, and 2D/3D bioluminescence images were acquired using an in vivo imaging system (XENOGEN IVIS SPECTRUM, PerkinElmer, Inc., Waltham, MA). […]

[2] = system: dendritic cells (CD11c^+); test: In vitro activation of dendritic cells (CD40) by silicified tumor cells and doxorubicin-treated cancer cell supernatant; format: cell-based; details: supernatant from cancer cells treated with doxorubicin 5 ng/mL or 50 ng/mL, with vaccine
Protocol: Dendritic cells were seeded in 12-well plates at a density of 100,000 cells per well. After 24 hours, supernatant from cancer cells treated with doxorubicin (5 ng/mL or 50 ng/mL) was added, with or without 100,000 silicified tumor cells. Cells were labeled with fluorescent antibodies specific for CD40 and CD11c and analyzed using the Attune Flow Cytometer.

SMILES	survival [1]	tumor burden (bioluminescence) [1]	activation of dendritic cells (surface expression of CD40) [2]
N.N.[Cl][Pt][Cl] [Cisplatin, cis-diamineplatinum (II) dichloride]	improved survival	reduced tumor burden in some mice	–
COc1cccc2c1C(=O)c1c(O)c3c(c(O)c1C2=O)C[C@@](O)(C(=O)CO)C[C@@H]3O[C@H]1C[C@H](N)[C@H](O)[C@H](C)O1 [doxorubicin]	–	–	enhanced vaccine-mediated activation of dendritic cells
